# Target: Leukotriene B4 receptor (Cavia porcellus)
# Experiment: Inhibition of [3H]LTB4 binding to Leukotriene B4 receptor in the guinea pig spleen membranes
row,IC50,Compound
1,183 nM,CC(C)(CCCCOc1cc(-c2ccccc2)c2ccccc2n1)C(=O)O

# Target: Leukotriene B4 receptor (Cavia porcellus)
# Experiment: as above
# Remark: another data set of the same source
row,IC50,Compound
1,1800 nM,O=C(O)CCCCCCOc1cc(-c2ccccc2)c2ccccc2n1
2,550 nM,CC(CCCCOc1cc(-c2ccccc2)c2ccccc2n1)C(=O)O (stereo unspecified)
3,40 nM,CC(C)(CCCCOc1cc(-c2ccc(N)cc2)c2ccccc2n1)C(=O)O
4,30 nM,O=C(O)CCCCCOc1cc(-c2ccc(Cl)cc2)c2ccccc2n1
5,2500 nM,CC(C)(CCCCOc1cc(-c2ccccc2)c2cc(Cl)ccc2n1)C(=O)O
6,15 nM,CC(C)(CCCCOc1cc(-c2ccc(Cl)cc2)c2ccccc2n1)C(=O)O
7,30 nM,CC(C)(CCCCOc1cc(-c2ccc(Cl)cc2)c2ccccc2n1)c1nnn[nH]1
8,400 nM,CC(C)(CCCCOc1cc(-c2ccccc2)c2ccccc2n1)c1nnn[nH]1
9,1100 nM,CC(C)(CCCCOc1cc(-c2cccc(Cl)c2)c2ccccc2n1)C(=O)O
10,300 nM,CC(C)(CCCCOc1cc(-c2ccc(C(F)(F)F)cc2)c2ccccc2n1)C(=O)O
11,30 nM,Cc1ccc(-c2cc(OCCCCC(C)(C)C(=O)O)nc3ccccc23)cc1
12,300 nM,COc1cccc(-c2cc(OCCCCC(C)(C)C(=O)O)nc3ccccc23)c1
13,150 nM,CC(C)(CCCCOc1cc(-c2ccc([N+](=O)[O-])cc2)c2ccccc2n1)C(=O)O
14,500 nM,c1ccc(-c2cc(OCCCCCc3nnn[nH]3)nc3ccccc23)cc1
15,700 nM,O=C(O)CCCCCOc1cc(-c2ccccc2)c2ccccc2n1

# Source: BindingDB's records for doi:10.1021/jm00101a007 (Centre De Recherche De Vitry-Alfortville, 1992)
